Several values for one entry are separate records, joined by “and”; a condition that tells them apart may be missing. Equal values may be shown once. Inconclusive results and toxic doses are left out.
System: CD2F1 mice, L1210 leukemia ip, survival T/C
Test: NCI In Vivo Anticancer Drug Screen. Data for tumor model L1210 Leukemia (intraperitoneal) in CD2F1 (CDF1) mice
Conditions: higher = longer survival
Outline: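 Activity against a transplanted murine tumor was judged by comparing the compound group with a vehicle group. The outcome in the treated animals was divided by that in the controls.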

[1] = endpoint: mean survival time, dose: 100.0 mg/kg/injection, schedule: Q04DX003 (ip), vehicle: saline with Tween-80
[2] = endpoint: mean survival time, dose: 200.0 mg/kg/injection, schedule: Q04DX003 (ip), vehicle: saline with Tween-80
[3] = endpoint: mean survival time, dose: 400.0 mg/kg/injection, schedule: Q04DX003 (ip), vehicle: saline with Tween-80
[4] = endpoint: mean survival time, dose: 100.0 mg/kg/injection, schedule: Q01DX009 (ip), vehicle: saline with Tween-80
[5] = endpoint: mean survival time, dose: 200.0 mg/kg/injection, schedule: Q01DX009 (ip), vehicle: saline with Tween-80
[6] = endpoint: mean survival time, dose: 6.25 mg/kg/injection, schedule: Q04DX003 (ip), vehicle: saline with Tween-80
[7] = endpoint: mean survival time, dose: 25.0 mg/kg/injection, schedule: Q04DX003 (ip), vehicle: saline with Tween-80
[8] = endpoint: mean survival time, dose: 100.0 mg/kg/injection, schedule: Q04DX002 (ip), vehicle: saline
[9] = endpoint: mean survival time, dose: 200.0 mg/kg/injection, schedule: Q04DX002 (ip), vehicle: saline
[10] = endpoint: mean survival time, dose: 400.0 mg/kg/injection, schedule: Q04DX002 (ip), vehicle: saline
[11] = endpoint: mean survival time, dose: 400.0 mg/kg/injection, schedule: Q01DX009 (ip), vehicle: saline with Tween-80

SMILES: COC1=C(OCc2ccccc2)C(=O)OC1C(O)CO (centres undefined)
- T/C (endpoint: mean survival time, dose: 100.0 mg/kg/injection, schedule: Q01DX001 (ip), vehicle: saline with Tween-80): 98 % of control
- T/C (endpoint: mean survival time, dose: 200.0 mg/kg/injection, schedule: Q01DX001 (ip), vehicle: saline with Tween-80): 97 % of control
- T/C (endpoint: mean survival time, dose: 400.0 mg/kg/injection, schedule: Q01DX001 (ip), vehicle: saline with Tween-80): 93 % of control

SMILES: O=C(C[n+]1cccc(C(=O)NCc2ccccc2)c1)Nc1ccc(Cl)cc1
- T/C (endpoint: mean survival time, dose: 100.0 mg/kg/injection, schedule: Q04DX003 (ip), vehicle: saline): 94 % of control

SMILES: COc1ccc(-c2nc(N)ncc2C)cc1
- T/C (endpoint: mean survival time, dose: 100.0 mg/kg/injection, schedule: Q04DX002 (ip), vehicle: other): 96 % of control
- T/C (endpoint: mean survival time, dose: 200.0 mg/kg/injection, schedule: Q04DX002 (ip), vehicle: other): 96 % of control
- T/C (endpoint: mean survival time, dose: 400.0 mg/kg/injection, schedule: Q04DX002 (ip), vehicle: other): 101 % of control

SMILES: COC1OC(COC(=O)c2ccccc2)C(OC(=O)c2ccccc2)C(OC(=O)c2ccccc2)C1OC(=O)c1ccccc1 (centres undefined)
- T/C [1]: 95 % of control
- T/C [2]: 91 % of control
- T/C [3]: 87 % of control

SMILES: ClSc1c(Cl)c(Cl)c(Cl)c(Cl)c1Cl
- T/C [1]: 95 % of control
- T/C [2]: 101 % of control
- T/C [3]: 95 % of control

SMILES: Nc1ncn(C2CC(O)C(CO)O2)c(=O)n1 (centres undefined)
- T/C (endpoint: mean survival time, dose: 0.12 mg/kg/injection, schedule: Q01DX009 (ip), vehicle: saline): 160 % of control and 175 % of control
- T/C (endpoint: mean survival time, dose: 0.25 mg/kg/injection, schedule: Q01DX009 (ip), vehicle: Klucel (hydroxypropylcellulose) (HPC)): 195 % of control
- T/C (endpoint: mean survival time, dose: 0.25 mg/kg/injection, schedule: Q01DX009 (ip), vehicle: saline): 193 % of control and 221 % of control
- T/C (endpoint: mean survival time, dose: 0.5 mg/kg/injection, schedule: Q01DX009 (ip), vehicle: Klucel (hydroxypropylcellulose) (HPC)): 219 % of control
- T/C (endpoint: mean survival time, dose: 0.5 mg/kg/injection, schedule: Q01DX009 (ip), vehicle: saline): 229 % of control and 258 % of control
- T/C (endpoint: mean survival time, dose: 1.0 mg/kg/injection, schedule: Q01DX009 (ip), vehicle: Klucel (hydroxypropylcellulose) (HPC)): 227 % of control
- T/C (endpoint: mean survival time, dose: 1.0 mg/kg/injection, schedule: Q01DX009 (ip), vehicle: saline): 258 % of control and 296 % of control
- T/C (endpoint: mean survival time, dose: 4.0 mg/kg/injection, schedule: Q01DX009 (ip), vehicle: Klucel (hydroxypropylcellulose) (HPC)): 113 % of control
- T/C (endpoint: mean survival time, dose: 4.0 mg/kg/injection, schedule: Q01DX009 (ip), vehicle: saline): 121 % of control
- T/C (endpoint: mean survival time, dose: 8.0 mg/kg/injection, schedule: Q01DX009 (ip), vehicle: Klucel (hydroxypropylcellulose) (HPC)): 98 % of control
- T/C (endpoint: median survival time, dose: 0.25 mg/kg/injection, schedule: Q01DX009 (ip), vehicle: saline): 211 % of control
- T/C (endpoint: median survival time, dose: 0.5 mg/kg/injection, schedule: Q01DX009 (ip), vehicle: saline): 247 % of control
- T/C (endpoint: median survival time, dose: 1.0 mg/kg/injection, schedule: Q01DX009 (ip), vehicle: saline): 297 % of control
- T/C (endpoint: median survival time, dose: 8.0 mg/kg/injection, schedule: Q01DX009 (ip), vehicle: saline): 117 % of control

SMILES: Nc1nc(Nc2ccc(C(=O)O)cc2)n[nH]1
- T/C (endpoint: mean survival time, dose: 100.0 mg/kg/injection, schedule: Q01DX001 (ip), vehicle: saline sonified): 96 % of control
- T/C (endpoint: mean survival time, dose: 100.0 mg/kg/injection, schedule: Q01DX009 (ip), vehicle: saline sonified): 105 % of control
- T/C (endpoint: mean survival time, dose: 200.0 mg/kg/injection, schedule: Q01DX001 (ip), vehicle: saline sonified): 104 % of control
- T/C (endpoint: mean survival time, dose: 200.0 mg/kg/injection, schedule: Q01DX009 (ip), vehicle: saline sonified): 96 % of control
- T/C (endpoint: mean survival time, dose: 400.0 mg/kg/injection, schedule: Q01DX001 (ip), vehicle: saline sonified): 96 % of control
- T/C (endpoint: mean survival time, dose: 400.0 mg/kg/injection, schedule: Q01DX009 (ip), vehicle: saline sonified): 88 % of control

SMILES: CCCSC(=O)Nc1cccc(OC(=O)NC)c1
- T/C [1]: 99 % of control
- T/C [2]: 94 % of control
- T/C [3]: 99 % of control

SMILES: O=S(O)C(=NCc1ccccc1)NCc1ccccc1
- T/C [4]: 105 % of control
- T/C [5]: 86 % of control

SMILES: C1CCCC(NC2=NCCO2)CC1
- T/C [6]: 98 % of control
- T/C (endpoint: mean survival time, dose: 12.5 mg/kg/injection, schedule: Q04DX003 (ip), vehicle: saline with Tween-80): 97 % of control
- T/C [7]: 98 % of control

SMILES: Oc1ccccc1CNc1ccccc1
- T/C [1]: 98 % of control
- T/C [2]: 93 % of control
- T/C [3]: 104 % of control

SMILES: N#CC(C#N)=Cc1cccc(CC(O)(C(F)(F)F)C(F)(F)F)n1
- T/C [1]: 105 % of control
- T/C [2]: 94 % of control

SMILES: Cc1cn(C2OC(CO)C(O)C2O)c(=O)nc1N (centres undefined)
- T/C (endpoint: median survival time, dose: 25.0 mg/kg/injection, schedule: Q01DX005 (ip), vehicle: water): 96 % of control
- T/C (endpoint: median survival time, dose: 50.0 mg/kg/injection, schedule: Q01DX005 (ip), vehicle: water): 104 % of control
- T/C (endpoint: median survival time, dose: 100.0 mg/kg/injection, schedule: Q01DX005 (ip), vehicle: water): 104 % of control
- T/C (endpoint: median survival time, dose: 200.0 mg/kg/injection, schedule: Q01DX005 (ip), vehicle: water): 104 % of control

SMILES: CCCCC(C)(C(=O)OCC)C(=O)OCC
- T/C (endpoint: mean survival time, dose: 12.5 mg/kg/injection, schedule: Q01DX009 (ip), vehicle: Klucel (hydroxypropylcellulose) (HPC)): 98 % of control
- T/C (endpoint: mean survival time, dose: 25.0 mg/kg/injection, schedule: Q01DX009 (ip), vehicle: Klucel (hydroxypropylcellulose) (HPC)): 98 % of control
- T/C (endpoint: mean survival time, dose: 50.0 mg/kg/injection, schedule: Q01DX009 (ip), vehicle: Klucel (hydroxypropylcellulose) (HPC)): 108 % of control
- T/C (endpoint: mean survival time, dose: 100.0 mg/kg/injection, schedule: Q01DX009 (ip), vehicle: Klucel (hydroxypropylcellulose) (HPC)): 98 % of control
- T/C (endpoint: mean survival time, dose: 200.0 mg/kg/injection, schedule: Q01DX009 (ip), vehicle: Klucel (hydroxypropylcellulose) (HPC)): 98 % of control
- T/C (endpoint: mean survival time, dose: 400.0 mg/kg/injection, schedule: Q01DX009 (ip), vehicle: Klucel (hydroxypropylcellulose) (HPC)): 106 % of control

SMILES: COC(=O)C1(C)CCOC1=O (centres undefined)
- T/C [8]: 107 % of control
- T/C [9]: 98 % of control
- T/C [10]: 102 % of control

SMILES: CC(C)CCCC(C)C1CCC2C3CCC4CCCCC4(C)C3CCC12C (centres undefined)
- T/C [4]: 95 % of control
- T/C [5]: 94 % of control
- T/C [11]: 105 % of control

SMILES: Cc1oc2ccc(NS(=O)(=O)c3ccccc3)cc2c1C(=O)O
- T/C [1]: 97 % of control

SMILES: Cc1ccc(S(=O)(=O)N/N=C/Cc2c(C)cc(C)cc2C)cc1
- T/C (endpoint: median survival time, dose: 25.0 mg/kg/injection, schedule: Q04DX002 (ip), vehicle: saline with Tween-80): 100 % of control
- T/C (endpoint: median survival time, dose: 50.0 mg/kg/injection, schedule: Q04DX002 (ip), vehicle: saline with Tween-80): 100 % of control
- T/C (endpoint: median survival time, dose: 100.0 mg/kg/injection, schedule: Q04DX002 (ip), vehicle: saline with Tween-80): 100 % of control
- T/C (endpoint: median survival time, dose: 200.0 mg/kg/injection, schedule: Q04DX002 (ip), vehicle: saline with Tween-80): 110 % of control

SMILES: CC12C(=O)OC(=O)C1(C)C1OC2C(Br)C1Br (centres undefined)
- T/C [7]: 96 % of control
- T/C (endpoint: mean survival time, dose: 50.0 mg/kg/injection, schedule: Q04DX003 (ip), vehicle: saline with Tween-80): 96 % of control
- T/C [1]: 93 % of control and 101 % of control

SMILES: COc1cccc(C#Cc2ccccc2NC(C)=O)c1
- T/C [4]: 91 % of control
- T/C [5]: 86 % of control
- T/C [11]: 94 % of control

SMILES: CC(C)N1CCOC1c1ccccc1 (centres undefined)
- T/C (endpoint: mean survival time, dose: 75.0 mg/kg/injection, schedule: Q01DX001 (ip), vehicle: saline): 101 % of control
- T/C (endpoint: mean survival time, dose: 150.0 mg/kg/injection, schedule: Q01DX001 (ip), vehicle: saline): 101 % of control
- T/C (endpoint: mean survival time, dose: 300.0 mg/kg/injection, schedule: Q01DX001 (ip), vehicle: saline): 97 % of control

SMILES: COC(=O)C(Br)C(Br)c1ccccc1 (centres undefined)
- T/C [4]: 101 % of control
- T/C [1]: 103 % of control
- T/C [5]: 101 % of control
- T/C [2]: 106 % of control
- T/C [11]: 95 % of control
- T/C [3]: 106 % of control

SMILES: Cc1[nH]nc2c(=O)n(C)cnc12
- T/C (endpoint: mean survival time, dose: 12.5 mg/kg/injection, schedule: Q01DX005 (ip), vehicle: water): 103 % of control
- T/C (endpoint: mean survival time, dose: 25.0 mg/kg/injection, schedule: Q01DX005 (ip), vehicle: water): 104 % of control
- T/C (endpoint: mean survival time, dose: 50.0 mg/kg/injection, schedule: Q01DX005 (ip), vehicle: water): 98 % of control
- T/C (endpoint: mean survival time, dose: 100.0 mg/kg/injection, schedule: Q01DX005 (ip), vehicle: water): 92 % of control
- T/C (endpoint: mean survival time, dose: 200.0 mg/kg/injection, schedule: Q01DX005 (ip), vehicle: water): 95 % of control

SMILES: CC(C)C(C(=O)c1ccccc1)C(c1ccccc1)c1ccccc1 (centres undefined)
- T/C (endpoint: mean survival time, dose: 100.0 mg/kg/injection, schedule: Q04DX003 (ip), vehicle: other): 106 % of control
- T/C (endpoint: mean survival time, dose: 200.0 mg/kg/injection, schedule: Q04DX003 (ip), vehicle: other): 97 % of control
- T/C (endpoint: mean survival time, dose: 400.0 mg/kg/injection, schedule: Q04DX003 (ip), vehicle: other): 100 % of control

SMILES: CC([NH-])C([NH-])O.[Cl][Pt+2][Cl] (centres undefined)
- T/C [6]: 115 % of control

SMILES: CCCCCCCCCCCC(C)CC(CN)C(=O)OCC (centres undefined)
- T/C [8]: 92 % of control
- T/C [9]: 100 % of control
- T/C [10]: 100 % of control

From PubChem BioAssay AID256 (DTP/NCI, 2004)
